From patent publication US20060241101A1, “Novel benzimidazole derivatives and pharmaceutical compositions comprising these compounds” (priority 2003, published 2006)
Where a name gives a salt, the structure may show the parent alone.

For `COCCN1CCN(c2cccc(-n3cnc4cc(C(=O)OCCO)ccc43)c2)CC1` (as salt: HCl) [Compound 1f, 2-Hydroxyethyl 1-(3-(4-(methoxyethyl)-1-piperazinyl)-phenyl)-benzimidazole-5-carboxylate], which melting point is on record?
Its melting point is 159 to 162 °C.

For `CCOCCN1CCN(c2cccc(-n3cnc4cc(C(=O)OCC(C)C)ccc43)c2)CC1` (as salt: HCl) [Compound 1d, iso-Butyl 1-(3-(4-(ethoxyethyl)-1-piperazinyl)-phenyl)-benzimidazole-5-carboxylate], which melting point is on record?
Its melting point is 154 to 160 °C.

For `CCCCOC(=O)c1ccc2c(c1)ncn2-c1cccc(N2CCN(CCOC)CC2)c1` (as salt: HCl) [Compound 1g, n-Butyl 1-(3-(4-(methoxyethyl)-1-piperazinyl)-phenyl)-benzimidazole-5-carboxylate], which melting point is on record?
The melting point was 148 to 152 °C.

With `COCCOC(=O)c1ccc2c(c1)ncn2-c1cccc(N2CCN(CCOC)CC2)c1` (as salt: HCl) [Compound 1e, 2-Methoxyethyl 1-(3-(4-(methoxyethyl)-1-piperazinyl)-phenyl)-benzimidazole-5-carboxylate] as the compound, how does the melting point read?
Its melting point is 173 to 178 °C.

For `CCCCOC(=O)c1ccc2c(c1)ncn2-c1cccc(N2CCN(CCOCC)CC2)c1` (as salt: HCl) [Compound 1c, n-Butyl 1-(3-(4-(ethoxyethyl)-1-piperazinyl)-phenyl)-benzimidazole-5-carboxylate], which melting point is on record?
The melting point was 92 to 95 °C.
